# Results reported in patent EP0084677A1, “New compound having mucoregulating and fluidifying activity, process for its production and relative pharmaceutical compositions” (priority 1982, dated 1983).
# Tests used:
# [1] = tested on: male rabbit; test: Mucosecretolytic activity (technique of Giraldez et al.); type: in vivo; conditions: 500 mg/kg/os
# [2] = tested on: tracheo-bronchial mucus from rabbit; test: Fluidifying activity "in vivo" (microviscosimeter on tracheo-bronchial mucus); conditions: 500 mg/kg/os
# [3] = tested on: Swiss mouse; test: Acute toxicity (Litchfield and Wilcoxon method), mouse; type: in vivo
# Source text: (§1) The acute toxicity has been determined in Swiss mouse and in Wistar rat for different administra tion routes, according to the method of Litch- field J.T. and Wilcoxon LJ. Pharm. Exp. Therap. 96, 99-113 (1949)]. The results obtained are reported in the following Table I; from the same it can be pointed out how AFP 736 is endowed with a very low acute toxicity.
# [4] = tested on: male Wistar rat; test: Bronchosecretogogue activity (method of Mawatari); type: in vivo; conditions: 500 mg/kg/os, FlNa = Sodium fluoresceine
# [5] = tested on: Wistar rat; test: Acute toxicity (Litchfield and Wilcoxon method), rat; type: in vivo
# Source text: as §1
Molecule,% Increase of secretion in comparison with controls [1],% Reduction of mucus viscosity [2],LD50 ([3]; i.p.),LD50 ([3]; os),% Increase of FlNa in comparison with controls [4],LD50 ([5]; i.p.),LD50 ([5]; os)
"5-[(2-metho xy-phenoxy) caxbonyloxy]- α,α, 4-trimethyl-3-cyclohexen-1-methanol [AFP 736]",45.5%,32.2%,1750 mg/kg,3100 mg/kg,79.3%,2340 mg/kg,>4000 mg/kg
"NC(CSCC(=O)O)C(=O)O (centres unmarked) [Carboxy-methylcysteine, carboxymethylcysteine]",40.2%,–,–,–,39.7%,–,–
"COc1ccccc1O [Guaiacol, 2-methoxyphenol]",–,4.1%,–,–,–,–,–
"COc1ccccc1OCC(O)CO (centres unmarked) [Guaiphe-nesine, guaiphenesin]",–,–,–,–,12.6%,–,–
"CC1=CCC(C(C)(C)O)CC1O (centres unmarked) [Sobrerol, 2-methyl-5-(1-hydroxy-1-methyl-ethyl)-2-cyclohexen-1-ol]",36.8%,15.6%,–,–,33.4%,–,–
